Reference: ChEMBL document CHEMBL4819123, “Pulchinenosides: Correlation of surface activity-cytotoxicity and hepatocyte apoptosis mechanism study” (Bioorg Med Chem Lett, 2021)

What was measured:
L02 [1] = assay: Induction of apoptosis in human L02 cells assessed as late apoptotic cells at 10 uM by annexin-V-FITC/PI staining based flow cytometry analysis (reference value: 0.92 %); type: cell-based; settings: l02, 10 µM
L02 [2] = assay: Induction of apoptosis in human L02 cells assessed as decrease in caspase 8 level at 8 to 12 ug/ml measured after 24 hrs by Western blot analysis; type: cell-based; settings: l02, 24 h, dose 8-12 µg/ml
L02 [3] = assay: Induction of apoptosis in human L02 cells assessed as decrease in caspase 9 level at 8 to 12 ug/ml measured after 24 hrs by Western blot analysis; type: cell-based; settings: l02, 24 h, dose 8-12 µg/ml
L02 [4] = assay: Induction of cell cycle arrest in human L02 cells assessed as G2/M phase accumulation at 8 uM by PI staining based flow cytometry analysis (reference value: 8 %); settings: l02, 8 µM
L02 [5] = assay: Induction of apoptosis in human L02 cells assessed as increase in cleaved caspase 8 level at 8 to 12 ug/ml measured after 24 hrs by Western blot analysis; type: cell-based; settings: l02, 24 h, dose 8-12 µg/ml
L02 [6] = assay: Induction of cell cycle arrest in human L02 cells assessed as G2/M phase accumulation at 6 uM by PI staining based flow cytometry analysis (reference value: 8 %); settings: l02, 6 µM
[7] = Oil-water partition coefficient, logP of compound; type: physicochemical
L02 [8] = assay: Cytotoxicity against human L02 cells assessed as increase in LDH leakage by LDH assay; type: cell-based
L02 [9] = assay: Induction of apoptosis in human L02 cells assessed as decrease in ratio of Bcl-2/Bax at 8 to 12 ug/ml measured after 24 hrs by Western blot analysis; type: cell-based; settings: l02, 24 h, dose 8-12 µg/ml
L02 [10] = assay: Cytotoxicity against human L02 cells by MTT assay; type: cell-based
L02 [11] = assay: Induction of apoptosis in human L02 cells assessed as early apoptotic cells at 10 uM by annexin-V-FITC/PI staining based flow cytometry analysis (reference value: 3.81 %); type: cell-based; settings: l02, 10 µM
[12] = Hemolytic activity in rabbit erythrocytes; type: ADME, cell-based, Oryctolagus cuniculus, Erythrocyte; settings: read-out: HD50 (the source's name)
L02 [13] = assay: Induction of cell cycle arrest in human L02 cells assessed as G0/G1 phase accumulation at 6 uM by PI staining based flow cytometry analysis (reference value: 53.77 %); settings: l02, 6 µM
L02 [14] = assay: Induction of apoptosis in human L02 cells assessed as late apoptotic cells at 8 uM by annexin-V-FITC/PI staining based flow cytometry analysis (reference value: 0.92 %); type: cell-based; settings: l02, 8 µM
L02 [15] = assay: Induction of cell cycle arrest in human L02 cells assessed as G2/M phase accumulation at 10 uM by PI staining based flow cytometry analysis (reference value: 8 %); settings: l02, 10 µM
L02 [16] = assay: Induction of apoptosis in human L02 cells assessed as upregulation of FAS expression at 8 to 12 ug/ml measured after 24 hrs by Western blot analysis; type: cell-based; settings: l02, 24 h, dose 8-12 µg/ml
L02 [17] = assay: Induction of apoptosis in human L02 cells assessed as late apoptotic cells at 6 uM by annexin-V-FITC/PI staining based flow cytometry analysis (reference value: 0.92 %); type: cell-based; settings: l02, 6 µM
L02 [18] = assay: Induction of apoptosis in human L02 cells assessed as early apoptotic cells at 6 uM by annexin-V-FITC/PI staining based flow cytometry analysis (reference value: 3.81 %); type: cell-based; settings: l02, 6 µM
L02 [19] = assay: Induction of cell cycle arrest in human L02 cells assessed as G0/G1 phase accumulation at 8 uM by PI staining based flow cytometry analysis (reference value: 53.77 %); settings: l02, 8 µM
L02 [20] = assay: Induction of cell cycle arrest in human L02 cells assessed as S phase accumulation at 8 uM by PI staining based flow cytometry analysis (reference value: 38.23 %); settings: l02, 8 µM
L02 [21] = assay: Induction of cell cycle arrest in human L02 cells assessed as S phase accumulation at 6 uM by PI staining based flow cytometry analysis (reference value: 38.23 %); settings: l02, 6 µM
L02 [22] = assay: Induction of apoptosis in human L02 cells assessed as early apoptotic cells at 8 uM by annexin-V-FITC/PI staining based flow cytometry analysis (reference value: 3.81 %); type: cell-based; settings: l02, 8 µM
L02 [23] = assay: Induction of cell cycle arrest in human L02 cells assessed as G0/G1 phase accumulation at 10 uM by PI staining based flow cytometry analysis (reference value: 53.77 %); settings: l02, 10 µM
L02 [24] = assay: Induction of cell cycle arrest in human L02 cells assessed as S phase accumulation at 10 uM by PI staining based flow cytometry analysis (reference value: 38.23 %); settings: l02, 10 µM
L02 [25] = assay: Induction of cell cycle arrest in human L02 cells assessed as S phase accumulation at 26 uM by PI staining based flow cytometry analysis (reference value: 38.23 %); settings: l02, 26 µM
L02 [26] = assay: Induction of apoptosis in human L02 cells assessed as late apoptotic cells at 24 uM by annexin-V-FITC/PI staining based flow cytometry analysis (reference value: 0.92 %); type: cell-based; settings: l02, 24 µM
L02 [27] = assay: Induction of cell cycle arrest in human L02 cells assessed as S phase accumulation at 18 uM by PI staining based flow cytometry analysis (reference value: 38.23 %); settings: l02, 18 µM
L02 [28] = assay: Induction of cell cycle arrest in human L02 cells assessed as G2/M phase accumulation at 18 uM by PI staining based flow cytometry analysis (reference value: 8 %); settings: l02, 18 µM
L02 [29] = assay: Induction of cell cycle arrest in human L02 cells assessed as G0/G1 phase accumulation at 26 uM by PI staining based flow cytometry analysis (reference value: 53.77 %); settings: l02, 26 µM
L02 [30] = assay: Induction of cell cycle arrest in human L02 cells assessed as S phase accumulation at 24 uM by PI staining based flow cytometry analysis (reference value: 38.23 %); settings: l02, 24 µM
L02 [31] = assay: Induction of cell cycle arrest in human L02 cells assessed as G0/G1 phase accumulation at 18 uM by PI staining based flow cytometry analysis (reference value: 53.77 %); settings: l02, 18 µM
L02 [32] = assay: Induction of cell cycle arrest in human L02 cells assessed as G0/G1 phase accumulation at 24 uM by PI staining based flow cytometry analysis (reference value: 53.77 %); settings: l02, 24 µM
L02 [33] = assay: Induction of apoptosis in human L02 cells assessed as late apoptotic cells at 18 uM by annexin-V-FITC/PI staining based flow cytometry analysis (reference value: 0.92 %); type: cell-based; settings: l02, 18 µM
L02 [34] = assay: Induction of apoptosis in human L02 cells assessed as early apoptotic cells at 24 uM by annexin-V-FITC/PI staining based flow cytometry analysis (reference value: 3.81 %); type: cell-based; settings: l02, 24 µM
L02 [35] = assay: Induction of apoptosis in human L02 cells assessed as late apoptotic cells at 26 uM by annexin-V-FITC/PI staining based flow cytometry analysis (reference value: 0.92 %); type: cell-based; settings: l02, 26 µM
L02 [36] = assay: Induction of cell cycle arrest in human L02 cells assessed as G2/M phase accumulation at 26 uM by PI staining based flow cytometry analysis (reference value: 8 %); settings: l02, 26 µM
L02 [37] = assay: Induction of cell cycle arrest in human L02 cells assessed as G2/M phase accumulation at 24 uM by PI staining based flow cytometry analysis (reference value: 8 %); settings: l02, 24 µM
L02 [38] = assay: Induction of apoptosis in human L02 cells assessed as early apoptotic cells at 18 uM by annexin-V-FITC/PI staining based flow cytometry analysis (reference value: 3.81 %); type: cell-based; settings: l02, 18 µM
L02 [39] = assay: Induction of apoptosis in human L02 cells assessed as early apoptotic cells at 26 uM by annexin-V-FITC/PI staining based flow cytometry analysis (reference value: 3.81 %); type: cell-based; settings: l02, 26 µM

SMILES	Activity (L02 [1])	Activity (L02 [4])	Activity (L02 [6])	logP [7]	Activity (L02 [8])	IC50 (L02 [10])	Activity (L02 [11])	HC50 [12]	Activity (L02 [13])	Activity (L02 [14])	Activity (L02 [15])	Activity (L02 [17])	Activity (L02 [18])	Activity (L02 [19])	Activity (L02 [20])	Activity (L02 [21])	Activity (L02 [22])	Activity (L02 [23])	Activity (L02 [24])	Activity (L02 [25])	also measured
C[C@H]1O[C@@H](O[C@@H]2[C@@H](O)[C@@H](CO)O[C@H](O[C@@H]3[C@H](O)[C@@H](O)[C@H](O[C@H]4CC[C@]5(C)[C@H]6CC=C7[C@@H]8CC(C)(C)CC[C@]8(C(=O)O)CC[C@@]7(C)[C@]6(C)CC[C@H]5C4(C)C)O[C@@H]3CO)[C@@H]2O)[C@H](O[C@@H]2OC[C@@H](O)[C@@H](O)[C@@H]2O)[C@@H](O)[C@@H]1O	92.2%	3.8%	8%	-0.0114	Toxic	9.57 µM	1.92%	2.49 µM	57.44%	54.1%	0.45%	7.91%	7.62%	60.25%	35.95%	34.56%	23.4%	67.43%	32.14%	–	Activity (L02 [2]): Toxic; Activity (L02 [3]): Toxic; Activity (L02 [5]): Toxic; Activity (L02 [9]): Toxic; Activity (L02 [16]): Toxic
C[C@@H]1O[C@@H](O[C@H]2[C@H](O[C@H]3CC[C@@]4(C)[C@@H](CC[C@]5(C)[C@@H]4CC=C4[C@@H]6CC(C)(C)CC[C@]6(C(=O)O)CC[C@]45C)[C@]3(C)CO)OC[C@H](O[C@@H]3O[C@H](CO)[C@@H](O)[C@H](O)[C@H]3O)[C@@H]2O)[C@H](O)[C@H](O)[C@H]1O [HEDERACOLCHISIDE A]	–	–	–	0.115	Toxic	21.1 µM	–	6.83 µM	–	–	–	–	–	–	–	–	–	–	–	30.28%	Activity (L02 [26]): 10.3%; Activity (L02 [27]): 40.23%; Activity (L02 [28]): 1.47%; Activity (L02 [29]): 61.72%; Activity (L02 [30]): 30.41%; Activity (L02 [31]): 58.3%; Activity (L02 [32]): 7.96%; Activity (L02 [33]): 4.61%; Activity (L02 [34]): 15.9%; Activity (L02 [35]): 94.9%; Activity (L02 [36]): 8%; Activity (L02 [37]): 61.63%; Activity (L02 [38]): 13.7%; Activity (L02 [39]): 2.2%
C[C@@H]1O[C@@H](O[C@H]2[C@H](O[C@H]3CC[C@@]4(C)[C@@H](CC[C@]5(C)[C@@H]4CC=C4[C@@H]6CC(C)(C)CC[C@]6(C(=O)O)CC[C@]45C)[C@]3(C)CO)OC[C@H](O)[C@@H]2O)[C@H](O)[C@H](O)[C@H]1O [ALPHA-HEDERIN]	–	–	–	0.0672	Toxic	21 µM	–	9.04 µM	–	–	–	–	–	–	–	–	–	–	–	40.88%	Activity (L02 [26]): 15.5%; Activity (L02 [27]): 31%; Activity (L02 [28]): 8%; Activity (L02 [29]): 52.42%; Activity (L02 [30]): 32.48%; Activity (L02 [31]): 61%; Activity (L02 [32]): 59.52%; Activity (L02 [33]): 8.18%; Activity (L02 [34]): 17%; Activity (L02 [35]): 94.2%; Activity (L02 [36]): 6.72%; Activity (L02 [37]): 8%; Activity (L02 [38]): 16.84%; Activity (L02 [39]): 1.98%
C[C@@H]1O[C@@H](O[C@H]2[C@H](O[C@H]3CC[C@]4(C)[C@H]5CC=C6[C@@H]7CC(C)(C)CC[C@]7(C(=O)O)CC[C@@]6(C)[C@]5(C)CC[C@H]4C3(C)C)OC[C@H](O[C@@H]3O[C@H](CO)[C@@H](O)[C@H](O)[C@H]3O)[C@@H]2O)[C@H](O)[C@H](O)[C@H]1O [HEDERACOLCHISIDE A1]	94.1%	2%	8%	0.0406	Toxic	7.13 µM	3.51%	3.24 µM	62.05%	38.6%	1.88%	3.11%	4.59%	67.33%	32.66%	29.95%	17.6%	39.69%	58.44%	–	Activity (L02 [2]): Toxic; Activity (L02 [3]): Toxic; Activity (L02 [5]): Toxic; Activity (L02 [9]): Toxic; Activity (L02 [16]): Toxic
C[C@@H]1O[C@@H](O[C@H]2[C@H](O[C@H]3CC[C@]4(C)[C@H]5CC=C6[C@@H]7CC(C)(C)CC[C@]7(C(=O)O)CC[C@@]6(C)[C@]5(C)CC[C@H]4C3(C)C)OC[C@H](O)[C@@H]2O)[C@H](O)[C@H](O)[C@H]1O	–	–	–	0.244	Toxic	23.1 µM	–	7.46 µM	–	–	–	–	–	–	–	–	–	–	–	44.08%	Activity (L02 [26]): 6.93%; Activity (L02 [27]): 30.6%; Activity (L02 [28]): 0.31%; Activity (L02 [29]): 51.19%; Activity (L02 [30]): 36.28%; Activity (L02 [31]): 69.09%; Activity (L02 [32]): 64%; Activity (L02 [33]): 3.82%; Activity (L02 [34]): 12.1%; Activity (L02 [35]): 8.41%; Activity (L02 [36]): 4.73%; Activity (L02 [37]): 1.72%; Activity (L02 [38]): 8.4%; Activity (L02 [39]): 54.9%
C[C@@H]1O[C@@H](O[C@H]2[C@H](O[C@H]3CC[C@]4(C)[C@H]5CC=C6[C@@H]7CC(C)(C)CC[C@]7(C(=O)O)CC[C@@]6(C)[C@]5(C)CC[C@H]4C3(C)C)OC[C@H](O)[C@@H]2O[C@@H]2O[C@H](CO)[C@@H](O)[C@H](O)[C@H]2O)[C@H](O)[C@H](O)[C@H]1O	89.3%	4.8%	8%	0.318	Toxic	7.49 µM	2.79%	3.6 µM	58.57%	27.9%	2%	2.91%	6.87%	56.86%	38.34%	33.43%	13.4%	50.68%	47.32%	–	–
